Legend:
[1] = test system: HUVECs; experiment: fibrin gel sprouting assay (3-dimensional culture of HUVECs on beads); format: cell-based, human; conditions: 1 μmol/L, VEGF-induced EC sprouting
Procedure: (§1) Collagen invasion assay was performed as previously described (Kang, et al. (2011) J. Biol. Chem. 286:42017-26). In vitro capillary network formation on […] (BD Biosciences, San Jose, Calif.) and scratch wound healing assay were performed as previously described (Humtsoe, et al. (2010) Mol. Cell Biol. 30:1593-1606). Fibrin gel sprouting assay was performed as described by Nakatsu & Hughes ((2008) Methods Enzymol. 443:65-82). VEGF (2.2 nmol/L) stimulation was used for all in vitro angiogenesis assays. Transwell migration assay was performed as described by Kaplan, et al. ((2011) Free Radical Res. 45:1124-35) using VEGF (4.4 nmol/L), sphingosine-1-phosphate (S1P) (1 μmol/L), or basic fibroblast growth factor (bFGF) (50 ng/mL) in the presence or absence of kinesin-derived angiogenesis inhibitor (DUF2C5; residues 1238-1260 of KIF13B) at varying concentrations.
Changes in VEGF-induced network formation assay were assessed in […] plugs. […] VEGF-induced EC sprouting was also determined by 3-dimensional culture of HUVECs on beads (Nakatsu & Hughes (2008) Methods Enzymol. 443:65-82).

[2] = biological target: VEGFR2 (Homo sapiens, UniProt P35968); experiment: surface plasmon resonance (SPR) with BIACORE; format: binding; design: recombinant cytosolic domain of kinases (Fisher Scientific); purchased Fisher Scientific; conditions: peptide on avidin-coated chip, recombinant cytosolic domain of kinase
Procedure: Additionally, the sequence of DUF2C5 is highly conserved in mammalian KIF13B. […] To further test the specificity of DUF2C5, pull-down of proteins was conducted using DUF2C5 or control peptide (CT23) immobilized on streptavidin beads followed by mass spec analysis of the binding proteins. This analysis detected the presence of KIF13B, VEGFR2, and co-receptor NRP1 (number of hits were 28, 11, and 5, respectively). Tie2, Par1, S1PR1, and FGFR were not found. Other cargo for KIF13B (e.g., CentA, hDlg) were also not found. […] The affinity of each receptor tyrosine kinase was subsequently tested via surface plasmon resonance (SPR) with BIACORE (UIC, RRC), using DUF2C5 and CT23 on an avidin-coated chip, and recombinant cytosolic domain of kinases (Fisher Scientific).

[3] = test system: choroidal neovascularization; experiment: laser-induced choroidal neovascularization (CNV); format: in vivo, mouse; conditions: eye drop, 2 μg/eye daily
Procedure: FIG. 5A and FIG. 5B show the effect of DUF2C5 treatment on laser-induced CNV. FIG. 5A, Dose-dependent effect of DUF2C5 was tested by intravitreal injection of DUF2C5 0.5 μg, 2 μg, and 10 μg after laser photocoagulation. Neovascularization was assessed by the area of ILB4-staining, and plotted in the graph (N=5 mice in each group, and 4 laser burns were induced in each mouse). Asterisks indicate p<0.05, One-way ANOVA. FIG. 5B, Effect of DUF2C5 as an eye drop was tested in CNV model. After laser photocoagulation, mice were treated daily with either control peptide (2 μg/eye) or DUF2C5 (2 μg/eye) for […]. Neovascularization was assessed by the area of ILB4-staining, and plotted in the graph (N=7 mice in each group, and 4 laser burns were induced in each mouse). Asterisks indicate p<0.05, t-test. […]
Choroidal neovascularization was evaluated by ocular coherence tomography (OCT) and fluorescein angiography at day 7 and 14. […]
The experiments were terminated at day 14 after taking images of OCT and angiography. […] The area of vascular leakage and CNV was quantified using confocal image of CNV staining for lectin B4 using MetaMorph software. Data was plotted and analyzed statistically with Prism 6 (Graph Pad, San Diego Calif.). […]
The effect of DUF2C5 as an eye drop was subsequently tested. […] Neovascularization was assessed by OCT, fluorescein angiography, and staining with ILB4.

[4] = test system: HUVECs; experiment: scratch wound healing assay; format: cell-based, human
Procedure: as §1
EC migration in response to DUF2C5 was determined using the scratch wound healing assay. […] The […] migration assay was also employed to determine whether the inhibitory effect of DUF2C5 on EC migration was specific to VEGF. HUVECs were placed in the […] chamber with or without DUF2C5 or CT23. […] PBS and CT23 had no effect on EC migration induced by all stimuli.

[5] = test system: HUVECs; experiment: uptake of biotin-tagged peptides by HUVECs, flow cytometry; format: cell-based, human; conditions: biotin-tagged peptide, 2 hours incubation
Procedure: Next, EC uptake of the peptides by HUVECs was determined. Both DUF2C5 and CT23 were designed to have high pI (pH at which the molecules carry no net charge), pI 12.1 and 10.4, respectively; thus, in neutral pH, both peptides have a positive charge important for cellular uptake (Jones, et al. (2005) Br. J. Pharmacol. 145:1093-1102). DUF2C5 and CT23 were synthesized with a biotin-tag and visualized using streptavidin-[…].

VEGFR2, sequence (P35968 786-1356 limits assumed, species assumed): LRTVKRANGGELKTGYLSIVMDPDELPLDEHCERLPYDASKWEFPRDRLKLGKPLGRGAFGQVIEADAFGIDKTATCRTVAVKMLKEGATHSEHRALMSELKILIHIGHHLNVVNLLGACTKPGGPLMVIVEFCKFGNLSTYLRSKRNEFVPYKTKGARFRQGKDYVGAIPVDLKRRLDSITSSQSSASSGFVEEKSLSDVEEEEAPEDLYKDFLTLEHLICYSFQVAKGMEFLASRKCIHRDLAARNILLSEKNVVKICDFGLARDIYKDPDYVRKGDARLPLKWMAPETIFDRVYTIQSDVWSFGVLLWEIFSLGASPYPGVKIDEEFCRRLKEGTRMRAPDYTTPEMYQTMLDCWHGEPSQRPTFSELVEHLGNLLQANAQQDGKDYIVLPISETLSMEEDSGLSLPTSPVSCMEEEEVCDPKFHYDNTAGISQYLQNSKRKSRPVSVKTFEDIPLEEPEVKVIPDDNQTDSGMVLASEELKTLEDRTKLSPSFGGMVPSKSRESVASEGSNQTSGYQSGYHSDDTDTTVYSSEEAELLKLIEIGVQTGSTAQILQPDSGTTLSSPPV

Substance: CT23: negative control, C-terminal 23-amino acid peptide, residues 1650 to 1672 of KIF13B (RVRASELRSFSRMLAGDPGCSPG)
- number of branching point structures per bead [1]: 4-6 branches
- number of sprouts per bead [1]: 13-16 sprouts
- KD value, VEGFR2 [2]: did not bind
- neovascularization (laser-induced CNV) [3]: did not have any effect
- VEGF-induced migration of HUVECs (wound closure) [4]: migrated and closed the wound
- uptake of the peptides by HUVECs [5]: shown to internalize

Reference: patent US11299524B2, “KIF13B-derived peptide and method of inhibiting angiogenesis” (THE BOARD OF TRUSTEES OF THE UNIVERSITY OF ILLINOIS, priority 2016, dated 2022)
